Tested on: whole kidney samples, approximately 11,000 murine genes
Experiment: Kidney gene expression on oligonucleotide arrays in murine model of autoimmune kidney disease (untreated, rapamycin-treated, anti-B7-treated)
Type: in vivo, NZB/NZW F1 mice
Conditions: Example 2(A); normalized = difference in expression of less than five versus untreated asymptomatic mice
Description: NZB/NZW F1 (B/W) mice develop an autoimmune kidney disease that is analogous to human systemic erythematosus. Mice, aged at intervals from 12 weeks (asymptomatic) to 42 weeks (diseased) were chosen to mimic the clinical presentation of patients with established SLE. By seven months of age, mice begin to develop nephritis characterized by proteinuria, anti-DNA antibody production and histopathologic changes in the kidney. […]
Labeled RNA was prepared from clones containing a T7 RNA polymerase promoter site by incorporating labeled ribonucleotides in an in vitro transcription (IVT) reaction. […] RNA was concentrated and then quantitated by spectrophotometry. […]
The labeled and fragmented RNA probes were diluted in 1×MES buffer, BIO948, Bio C, B cre, 100 μg/ml herring sperm DNA, and 50 μg/ml acetylated BSA. […] When biotin-labeled RNA was used, the hybridized RNA was stained with a streptavidin-phycoerythrin conjugate (Molecule Probes, Eugene, Oreg.) prior to reading. […] The arrays were again washed and stained with streptavidin SSPE-T prior to being reading. The arrays were read using a scanning confocal microscope made for Affymetrix by Molecular Dynamics (commercially available through Affymetrix, Santa Clara, Calif.). […]

SMILES: CO[C@H]1C[C@@H]2CC[C@@H](C)[C@@](O)(O2)C(=O)C(=O)N2CCCC[C@H]2C(=O)O[C@H]([C@H](C)C[C@@H]2CC[C@@H](O)[C@H](OC)C2)CC(=O)[C@H](C)/C=C(\C)[C@@H](O)[C@@H](OC)C(=O)[C@H](C)C[C@H](C)/C=C/C=C/C=C/1C [rapamycin]
- number of genes not normalized by rapamycin treatment: 23 genes

— patent US20060188921A1, “Methods for diagnosing and treating systemic lupus erythematosus disease and compositions thereof” (Wyeth, priority 2001, published 2006)
